Test results taken from the Kinase Knowledgebase extract (Sharma et al. 2016).

molecular target: CDK2 (UniProt P24941); experiment: Enzyme Assay; settings: concentration not given here

inhibition [%] | Compound
60 | CS(=O)(=O)c1ccccc1S(=O)(=O)Nc1ccc2[nH]nc(-c3cccc(OC(F)(F)F)c3)c2c1
0 | CS(=O)(=O)c1ccccc1S(=O)(=O)Nc1ccc2[nH]nc(-c3cccc(OCc4ccccc4)c3)c2c1
56 | CC(=O)c1ccc(-c2n[nH]c3ccc(NS(=O)(=O)c4ccccc4S(C)(=O)=O)cc23)cc1
93 | COc1ccc(-c2n[nH]c3ccc(NS(=O)(=O)c4ccccc4S(C)(=O)=O)cc23)cc1
73 | CS(=O)(=O)c1ccccc1S(=O)(=O)Nc1ccc2[nH]nc(-c3ccc4[nH]ccc4c3)c2c1
76 | COc1ccc(-c2n[nH]c3ccc(NS(=O)(=O)c4ccccc4S(C)(=O)=O)cc23)cc1OC
76 | CS(=O)(=O)c1ccccc1S(=O)(=O)Nc1ccc2[nH]nc(-c3ccc4c(c3)OCO4)c2c1
77 | CS(=O)(=O)c1ccccc1S(=O)(=O)Nc1ccc2[nH]nc(-c3ccc(F)c(Cl)c3)c2c1
0 | CC(C)(C)c1ccc(-c2n[nH]c3ccc(NS(=O)(=O)c4ccccc4S(C)(=O)=O)cc23)cc1
19 | CSc1ccccc1-c1n[nH]c2ccc(NS(=O)(=O)c3ccccc3S(C)(=O)=O)cc12
80 | CS(=O)(=O)c1ccccc1S(=O)(=O)Nc1ccc2[nH]nc(-c3cccc(Cl)c3)c2c1
27 | CS(=O)(=O)c1ccccc1S(=O)(=O)Nc1ccc2[nH]nc(-c3ccccc3-c3ccccc3)c2c1
82 | CS(=O)(=O)c1ccccc1S(=O)(=O)Nc1ccc2[nH]nc(Sc3ccccc3)c2c1
86 | CS(=O)(=O)c1ccccc1S(=O)(=O)Nc1ccc2[nH]nc(-c3ccc(C#N)cc3)c2c1
87 | CS(=O)(=O)c1ccc(F)cc1S(=O)(=O)Nc1ccc2[nH]nc(-c3ccccc3)c2c1
72 | CS(=O)(=O)c1ccccc1S(=O)(=O)Nc1ccc2[nH]nc(-c3ccc(F)c(F)c3)c2c1
83 | CS(=O)(=O)c1ccccc1S(=O)(=O)Nc1ccc2[nH]nc(-c3ccc(C(F)(F)F)cc3)c2c1
92 | CS(=O)(=O)c1ccccc1S(=O)(=O)Nc1ccc2[nH]nc(NCc3ccccc3)c2c1
81 | CS(=O)(=O)c1ccccc1S(=O)(=O)Nc1ccc2[nH]nc(-c3cccc(C(F)(F)F)c3)c2c1
83 | CS(=O)(=O)c1ccccc1S(=O)(=O)Nc1ccc2[nH]nc(-c3ccc(F)cc3F)c2c1

inhibition [%] | Compound
65 | CS(=O)(=O)c1ccccc1S(=O)(=O)Nc1ccc2[nH]nc(-c3ccc(Br)cc3F)c2c1
90 | CS(=O)(=O)c1ccccc1S(=O)(=O)Nc1ccc2[nH]nc(-c3cccc(C#N)c3)c2c1
73 | CS(=O)(=O)c1ccccc1S(=O)(=O)Nc1ccc2[nH]nc(-c3cccc(O)c3)c2c1
13 | CS(=O)(=O)c1ccccc1S(=O)(=O)Nc1ccc2[nH]nc(-c3cccc4c3oc3ccccc34)c2c1
20 | CS(=O)(=O)c1ccccc1S(=O)(=O)Nc1ccc2[nH]nc(-c3ccc(I)cc3)c2c1
50 | CS(=O)(=O)c1ccccc1S(=O)(=O)Nc1ccc2[nH]nc(-c3ccccc3N)c2c1
64 | COC(=O)c1cccc(-c2n[nH]c3ccc(NS(=O)(=O)c4ccccc4S(C)(=O)=O)cc23)c1
20 | CS(=O)(=O)c1ccccc1S(=O)(=O)Nc1ccc2[nH]nc(-c3ccc(Oc4ccccc4)cc3)c2c1
94 | CS(=O)(=O)c1ccccc1S(=O)(=O)Nc1ccc2[nH]nc(-c3ccc(F)cc3)c2c1
59 | CC(C)c1cccc(-c2n[nH]c3ccc(NS(=O)(=O)c4ccccc4S(C)(=O)=O)cc23)c1
67 | COc1cccc(-c2n[nH]c3ccc(NS(=O)(=O)c4ccccc4S(C)(=O)=O)cc23)c1
66 | Cc1cc(-c2n[nH]c3ccc(NS(=O)(=O)c4ccccc4S(C)(=O)=O)cc23)ccc1F
75 | CS(=O)(=O)c1ccccc1S(=O)(=O)Nc1ccc2[nH]nc(-c3ccc(Br)cc3)c2c1
41 | CS(=O)(=O)c1ccccc1S(=O)(=O)Nc1ccc2[nH]nc(-c3ccc(OCc4ccccc4)c(F)c3)c2c1
99 | CS(=O)(=O)c1ccccc1S(=O)(=O)Nc1ccc2[nH]nc(-c3cc4ccccc4[nH]3)c2c1
77 | C=Cc1ccc(-c2n[nH]c3ccc(NS(=O)(=O)c4ccccc4S(C)(=O)=O)cc23)cc1
24 | CC(C)c1ccc(-c2n[nH]c3ccc(NS(=O)(=O)c4ccccc4S(C)(=O)=O)cc23)cc1
31 | CCOc1ccccc1-c1n[nH]c2ccc(NS(=O)(=O)c3ccccc3S(C)(=O)=O)cc12
96 | CS(=O)(=O)c1ccccc1S(=O)(=O)Nc1ccc2[nH]nc(-c3ccc(Cl)cc3)c2c1

More lines, now with the values behind:

Compound | inhibition [%]
O=C(O)c1cccc(S(=O)(=O)Nc2ccc3[nH]nc(-c4ccccc4)c3c2)c1 | 40
CS(=O)(=O)c1ccc(-c2n[nH]c3ccc(NS(=O)(=O)c4ccccc4S(C)(=O)=O)cc23)cc1 | 75
Nc1cc(Cl)cc(Cl)c1S(=O)(=O)Nc1ccc2[nH]nc(-c3ccccc3)c2c1 | 58
O=[N+]([O-])c1ccccc1S(=O)(=O)Nc1ccc2[nH]nc(-c3ccccc3)c2c1 | 81
Nc1n[nH]c2ccc(NS(=O)(=O)c3c(F)cccc3F)cc12 | 12
COc1cccc(S(=O)(=O)Nc2ccc3[nH]nc(-c4ccccc4)c3c2)c1 | 68
CS(=O)(=O)c1ccccc1S(=O)(=O)Nc1ccc2[nH]nc(-c3cc(F)cc(F)c3)c2c1 | 74
CCCCS(=O)(=O)Nc1ccc2[nH]nc(-c3ccccc3)c2c1 | 30
O=S(=O)(Nc1ccc2[nH]nc(-c3ccccc3)c2c1)c1ccc2ccccc2c1 | 78
O=S(=O)(Nc1ccc2[nH]nc(-c3ccccc3)c2c1)c1ccc(F)cc1 | 56
CC(=O)Nc1n[nH]c2ccc(NS(=O)(=O)c3ccccc3S(C)(=O)=O)cc12 | 96
CN(C)c1cccc2c(S(=O)(=O)Nc3ccc4[nH]nc(-c5ccccc5)c4c3)cccc12 | 84
O=S(=O)(Nc1ccc2[nH]nc(-c3cc4ccccc4[nH]3)c2c1)c1cccc(F)c1 | 99
O=S(=O)(Nc1ccc2[nH]nc(-c3cc4ccccc4[nH]3)c2c1)c1ccccc1OC(F)(F)F | 94
Cc1cc(C)c(S(=O)(=O)Nc2ccc3[nH]nc(-c4ccccc4)c3c2)c(C)c1 | 79
COc1ccc(OC)c(S(=O)(=O)Nc2ccc3[nH]nc(-c4ccccc4)c3c2)c1 | 51
CS(=O)(=O)c1ccccc1S(=O)(=O)Nc1ccc2[nH]nc(/C=C/c3ccccc3)c2c1 | 96
CS(=O)(=O)c1ccccc1S(=O)(=O)Nc1ccc2[nH]nc(-c3cc(C(F)(F)F)cc(C(F)(F)F)c3)c2c1 | 28
O=S(=O)(Nc1ccc2[nH]nc(-c3ccccc3)c2c1)c1cccc2cccnc12 | 99
Nc1n[nH]c2ccc(NS(=O)(=O)c3cc(F)cc(F)c3)cc12 | 0
CCCNC(=O)c1n[nH]c2ccc(NS(=O)(=O)c3ccccc3S(C)(=O)=O)cc12 | 96
CS(=O)(=O)c1ccccc1S(=O)(=O)Nc1ccc2[nH]nc(-c3ccc(Cl)s3)c2c1 | 55
COc1ccc(-c2n[nH]c3ccc(NS(=O)(=O)c4ccccc4S(C)(=O)=O)cc23)c(OC)c1 | 27
CS(=O)(=O)c1ccccc1S(=O)(=O)Nc1ccc2[nH]nc(-c3cc(Cl)cc(Cl)c3)c2c1 | 50
O=S(=O)(Nc1ccc2[nH]nc(-c3ccccc3)c2c1)C1CCNCC1 | 13
CS(=O)(=O)c1ccccc1S(=O)(=O)Nc1ccc2[nH]nc(NC(=O)c3ccccc3)c2c1 | 95

Compound | inhibition [%]
CN(C)c1c(F)c(F)c(S(=O)(=O)Nc2ccc3[nH]nc(-c4cc5ccccc5[nH]4)c3c2)c(F)c1F | 53
CC(=O)Nc1ccc(S(=O)(=O)Nc2ccc3[nH]nc(-c4ccccc4)c3c2)cc1 | 73
CC(=O)Nc1n[nH]c2ccc(NS(=O)(=O)c3cc(F)cc(F)c3)cc12 | 82
COC(=O)/C=C/c1n[nH]c2ccc(NS(=O)(=O)c3ccccc3S(C)(=O)=O)cc12 | 37
CS(=O)(=O)c1ccccc1S(=O)(=O)Nc1ccc2[nH]nc(-c3ccco3)c2c1 | 76
CS(=O)(=O)c1ccccc1S(=O)(=O)Nc1ccc2[nH]nc(-c3cccnc3)c2c1 | 88
CS(=O)(=O)c1ccccc1S(=O)(=O)Nc1ccc2[nH]nc(-c3cc(Br)cc(Br)c3)c2c1 | 45
Cc1cc(C)cc(-c2n[nH]c3ccc(NS(=O)(=O)c4ccccc4S(C)(=O)=O)cc23)c1 | 72
CS(=O)(=O)c1ccccc1S(=O)(=O)Nc1ccc2[nH]nc(-c3ccoc3)c2c1 | 80
Nc1ccc(S(=O)(=O)Nc2ccc3[nH]nc(-c4ccccc4)c3c2)cc1 | 70
O=S(=O)(Nc1ccc2[nH]nc(-c3ccccc3)c2c1)c1ccccc1F | 81
CNc1n[nH]c2ccc(NS(=O)(=O)c3ccccc3S(C)(=O)=O)cc12 | 51
CS(=O)(=O)c1ccccc1S(=O)(=O)Nc1ccc2[nH]nc(-c3cc4cccnc4[nH]3)c2c1 | 0
N#Cc1cccc(S(=O)(=O)Nc2ccc3[nH]nc(-c4ccccc4)c3c2)c1 | 75
CC1(C)[C@H]2CC[C@]1(CS(=O)(=O)Nc1ccc3[nH]nc(-c4ccccc4)c3c1)C(=O)C2 | 30
Cc1ccccc1S(=O)(=O)Nc1ccc2[nH]nc(-c3ccccc3)c2c1 | 77
O=C(Nc1n[nH]c2ccc(NS(=O)(=O)c3cc(F)cc(F)c3)cc12)c1ccccc1 | 82
O=S(=O)(Nc1ccc2[nH]nc(-c3ccccc3)c2c1)c1ccccc1OC(F)(F)F | 74
CS(=O)(=O)c1ccccc1S(=O)(=O)Nc1ccc2[nH]nc(/C=C/c3ccc(F)cc3)c2c1 | 95
CC(C)c1cc(C(C)C)c(S(=O)(=O)Nc2ccc3[nH]nc(-c4ccccc4)c3c2)c(C(C)C)c1 | 50
CS(=O)(=O)c1ccccc1S(=O)(=O)Nc1ccc2[nH]nc(/C=C/c3ccc(Cl)cc3)c2c1 | 96
N#Cc1ccccc1S(=O)(=O)Nc1ccc2[nH]nc(-c3ccccc3)c2c1 | 69
COc1ccc2[nH]c(-c3n[nH]c4ccc(NS(=O)(=O)c5ccccc5S(C)(=O)=O)cc34)cc2c1 | 100
O=S(=O)(Nc1ccc2[nH]nc(-c3cc4ccccc4[nH]3)c2c1)c1ccccc1 | 100
CS(=O)(=O)c1ccccc1S(=O)(=O)Nc1ccc2[nH]nc(-c3ccc(Cl)cc3Cl)c2c1 | 23
